Assay results from patent US20210147811A1, “METHODS FOR IN VITRO EXPANSION OF ADULT TISSUE STEM CELLS” (CEDARS-SINAI MEDICAL CENTER, priority 2018, published 2021).
“Also recorded” adds a separate entry of the source.

Tests used:
airway epithelial cells = assay: In vitro clonogenic potential and colony-forming ability with Rho kinase inhibitor HA1077; assay type: cell-based; details: FIG. 11
Source text: FIG. 11. […] P53 and ROCK regulate epithelial colony-forming ability and “stemness”. Tp53 (p53) is a tumor suppressor that is one of the most commonly mutated genes in cancer. In addition to its classical functions of regulating cell fate following cellular stress, p53 regulates migration, autophagy, metabolism, and tumor microenvironment signaling. p53 regulates self-renewal and terminal differentiation of both neural and mammary stem cells in vitro, and of hematopoietic and kidney stem/progenitor cells in vivo. In the Inventors' previous work the Inventors have shown that loss of p53 function promotes stem cell renewal in vivo and leads to a dramatic increase in colony-forming epithelial progenitor cells in vitro. The impact of p53 loss-of-function on airway epithelial in vitro colony-forming ability can be phenocopied by pharmacologic inhibition of Rho kinase (ROCK). Experiments proposed in the Inventors' application will use transient pharmacologic modulation of ROCK and p53 as tools to enhance survival and “sternness” of transplanted epithelial cells and overcome the need for co-transplanted structural lung cells for their efficient engraftment.

[1] = test system: Scgb1a1 immunoreactive cells; assay: Club cell ablation by gancyclovir in Scgb1a1-HSVtk transgenic mice; assay type: in vivo; details: 12.5 mg total delivered dose through miniosmotic pump, 7 days post-treatment
Protocol: FIG. 9. Orthotopic cell transplantation. Scgb1a1-HSVtk transgenic mice were exposed to gancyclovir delivered through miniosmotic pump and club cell ablation monitored by immunofluorescence. A dose of 12.5 mg gancyclovir (total delivered dose) led to >90% loss of Scgb1a1 immunoreactive cells 7 days post-treatment (red immunofluorescence in panel A). Total lung cells were isolated from ROSA-GFP mice and 1×10^6 cells transplanted into lungs of gancyclovir-treated mice that received i.t. chlodronate-containing liposomes for depletion of macrophages. Transplanted cells are shown in green in B and C, with cell type-specific markers shown by red immunofluorescence in C. Transplantation of 1×10^6 ROSA-mT lung cells (total cells following depletion of CD45+ fraction) into recipient lung tissue pre-conditioned by 6 Gy X-Rays led to efficient engraftment as shown by light sheet microscopy 2 weeks post transplant (D). The Inventors' initial efforts to develop a protocol for functional engraftment of transplanted epithelial stem cells involved sequential ablation of club cells through delivery of gancyclovir to Scgb1a1-HSVtk trangenic mice followed by delivery of liposome encapsulated chlodronate to deplete macrophages (FIG. 9A-C). […] Difficulties with this model were lack of translatability and poor survival of recipient mice. […]

distal progenitor cells = assay: Differentiation potential of distal progenitors after 3D organoid culture with inhibitors; assay type: cell-based; details: 14 days with Pifithrin-alpha, ROCKi and SB431542, then 7 days without inhibitors, PDPN and SPC staining
Protocol: FIG. 16. […] Distal progenitor cells were cultured as 3D organoids for 14 days in presence of Pifithrin-alpha, ROCKi and SB431542 followed by culture for 7 days in media without all three inhibitors. […] DAPI (blue) is a nuclear stain.
(§1) Distal progenitor cells were cultured as 3D organoids for 14 days in presence of Pifithrin-alpha, ROCKi and SB431542 followed by culture for 7 days in media without all three inhibitors. […] Addition of ROCKi (in presence of SB431542) increases the colony forming efficiency of freshly isolated club cells (regional stem cells which maintain certain cell types in the bronchiolar epithelium) whereas addition of Pifithrin alpha (in presence of SB431542) increases the size of Scgb1a1-derived organoids. Addition of both ROCKi (in presence of SB431542) increases the colony forming efficiency of freshly isolated murine proximal total epithelial cells (isolated from the murine trachea).

[2] = test system: freshly isolated murine distal total epithelial cells; assay: 3D organoid culture of freshly isolated murine distal total epithelial cells; assay type: cell-based; details: for % colony forming efficiency: freshly isolated murine lung epithelial cells, addition to the culture medium (FIG. 3)
Source text: (§2) FIG. 1. Experimental design. Preconditioning of donor cells, including addition of small molecules such as ROCK inhibitor, pifithrin α, or combined together, and generation of organoids.
FIG. 3. […] Addition of the TGF-β inhibitor, SB 431542 to the culture medium increases the % colony forming efficiency of freshly isolated murine lung epithelial cells. Addition of Pifithrin α causes an increase in organoids size, while addition of ROCKi causes an increase in the colony forming efficiency.
FIG. 13. Effect of p53 and ROCKi inhibition on murine freshly isolated distal total epithelial cells in (+SB431542). Addition of both ROCKi and Pifithrin alpha (in presence of SB431542) increases the colony forming efficiency of freshly isolated murine distal total epithelial cells (isolated from the lung without trachea). […] Pifithrin alpha also causes an increase in the size of the organoids (C). […] The drop in mean diameter of the Pifithrin alpha+ROCKi group is likely due to space constraints because of the large number of organoids per well.
Further described herein is a cell culture including a quantity of human stem cells, or stem cell derived cells in a cell culture media including at least one molecule including: a RHO-kinase (ROCK) inhibitor, SMAD inhibitor, and p53 inhibitor. In other embodiments, the RHO-kinase inhibitor is Y27632 and the p53 inhibitor is Pifithrin α. In other embodiments, the stem cells are adult stem cells. In other embodiments, the stem cell derived cells are lung epithelial cells. In various embodiments, the aforementioned inhibitors are at a concentration of 0.1-1 uM, 1-5 uM, 5-10 uM, 10-25 uM, 25-50 uM, or 50 uM or more. In various embodiments, the p53 inhibitor is Pifithrin-alpha. For example, this includes a media formulated as follows: 5 mL FBS, 500 uL ITS (100×), 50 uL Fungizone, 500 uL Pen/Strep (100×), DMEM/F12 up to 50 mL, 5 uL SB431542, Pifithrin-alpha 10 uM, ROCKi (Y-27632 dihydrochloride)—10 uM. Also described herein is a quantity of organoids including cells made by the aforementioned methods. In various embodiments, the organoids include proximal and/or distal cells. In various embodiments, the distal cells are alveolar type II progenitors and/or Scgb1a1 positive club progenitor cells.

[3] = test system: human bronchial epithelial stem cells; details: inhibition of ROCK1 and 2; cited from earlier work
[4] = test system: murine pre-cultured distal total epithelial cells; assay: 3D organoid culture of murine distal total epithelial cells pre-cultured 24 hrs on collagen coated plates; assay type: cell-based; details: pre-cultured on collagen coated plates for 24 hrs after isolation, +SB431542; dihydrochloride
Source text: FIG. 4. Effect of pre-culturing—Day 3. Pre-culturing cells on collagen coated plates for 24 hrs after initial isolation increases the rate of organoid formation, with organoids being visible as early as day 3 in culture.
FIG. 5. Effect of pre-culturing—Day 8. Addition of Pifithrin α causes an increase in organoids size, while addition of ROCKi causes an increase in the colony forming efficiency. This effect is more pronounced when cells are pre-cultured for 24 hrs on collagen coated plates after initial isolation.
FIG. 14. Effect of inhibitors on murine pre-cultured distal total epithelial cells in (+SB431542). Addition Pifithrin alpha increases organoid size while addition of ROCKi increases the colony forming efficiency when murine distal total epithelial cells (isolated from the lung without trachea) are pre-cultured on collagen coated plates for 24 hrs prior after initial isolation. The effect on size is more pronounced when cells are precultured for 24 hrs on collagen coated plates after initial isolation. The drop in CFE in the Pifithrin alpha+ROCKi group is likely due space and nutrient availability constraints due to the large number of organoids per well.
(§3) ROCKi increases the colony forming efficiency when murine distal total epithelial cells (isolated from the lung without trachea) are pre-cultured on collagen coated plates for 24 hrs prior after initial isolation. The effect on size is more pronounced when cells are precultured for 24 hrs on collagen coated plates after initial isolation. The drop in CFE in the Pifithrin alpha+ROCKi group is likely due space and nutrient availability constraints due to the large number of organoids per well. Addition of both ROCKi and Pifithrin alpha (in presence of SB431542) increases the colony forming efficiency of freshly isolated alveolar type II cells (regional stem cells which maintain the epithelium of the air sacs in the lung). The effect is synergistic for their combined use, similar to that seen for total distal epithelial cells in the previous figures.

[5] = test system: freshly isolated alveolar type II cells; assay: Organoid culture of lineage labelled murine alveolar type II cells; assay type: cell-based; details: GFP+ alveolar type II cells, in presence of SB431542
Source text: FIG. 15. Effect of ROCK and P53 inhibition on lineage labelled murine alveolar type II cells. GFP^+ alveolar type II cells were isolated from tamoxifen treated SPC-CreER/ROSARG mice. Addition of both ROCKi and Pifithrin alpha (in presence of SB431542) increases the colony forming efficiency of freshly isolated alveolar typeII cells (regional stem cells which maintain the epithelium of the air sacs in the lung). The effect is synergistic for their combined use, similar to that seen for total distal epithelial cells in the previous figures.
as §3

[6] = test system: freshly isolated murine proximal total epithelial cells; assay: Organoid culture of murine tracheal progenitor (basal) cells; assay type: cell-based
Protocol: FIG. 18. Effect of ROCK and P53 inhibition on murine tracheal progenitor (basal) cells. Addition of both ROCKi (in presence of SB431542) increases the colony forming efficiency of freshly isolated murine proximal total epithelial cells (isolated from the murine trachea).
as §1

freshly isolated cells = assay: Freshly isolated cells cultured with small molecules at different time points (proliferation); assay type: cell-based; details: different time points (FIG. 2)
Source text: as §2
FIG. 2. Freshly isolated cells cultured with small molecules at different time points.

[7] = test system: freshly isolated club cells; assay: Organoid culture of lineage labelled murine club cells; assay type: cell-based; details: GFP+ club cells, in presence of SB431542
Source text: FIG. 17. Effect of ROCK and P53 inhibition on lineage labelled murine club cells. GFP^+ club cells were isolated from tamoxifen treated Scgb1a1-CreER/ROSARG mice. Addition of ROCKi (in presence of SB431542) increases the colony forming efficiency of freshly isolated club cells (regional stem cells which maintain certain cell types in the bronchiolar epithelium) whereas addition of Pifithrin alpha (in presence of SB431542) increases the size of Scgb1a1-derived organoids.
as §1

## O=S(=O)(c1cccc2cnccc12)N1CCCNCC1 [HA1077]
Airway epithelial cells
  colony-forming ability: without altering
  in vitro clonogenic potential: increases

## Nc1nc(O)c2ncn(COC(CO)CO)c2n1 [gancyclovir]
[1]
  loss of Scgb1a1 immunoreactive cells: > 90%

## NC(=O)c1ccc(-c2nc(-c3ccc4c(c3)OCO4)c(-c3ccccn3)[nH]2)cc1 [SB 431542]
Distal progenitor cells
  differentiation potential: did not alter
[2]
  % colony forming efficiency: increases

## C[C@@H](N)[C@H]1CC[C@H](C(=O)Nc2ccncc2)CC1.Cl.Cl [ROCKi, Y-27632 dihydrochloride]
[3]
  survival and expansion of human bronchial epithelial stem cells: promote survival and expansion
[4]
  colony forming efficiency: increase
Distal progenitor cells; dihydrochloride
  differentiation potential: did not alter; also recorded: do not alter
[5]
  colony forming efficiency: increases
  size of the alveolar organoids: does not increase
[2]; freshly isolated cells, in presence of SB431542 (FIG. 13)
  colony forming efficiency: increases
[2]; freshly isolated distal cells, FIG. 13
  survival and proliferation of the stem cells (inferred from CFE and organoid size): increase survival
[2]
  % colony forming efficiency: increase
[6]; cells isolated from the murine trachea, in presence of SB431542
  colony forming efficiency: increases
[6]; comparison of proximal and distal progenitor cell types, dihydrochloride
  survival of proximal and distal progenitors (inferred from colony forming ability): increase survival of both proximal and distal progenitors; also recorded: increases survival
Freshly isolated cells
  proliferation of cells: have an effect on proliferation
[7]
  colony forming efficiency: increases
